Data on six compounds can be found in US20250313653A1, “GUEST/HOST INCLUSION COMPLEXES CONTAINING S-NITROSOGLUTATHIONE AND METHODS OF USE THEREOF” (VIRGINIA COMMONWEALTH UNIVERSITY, priority 2022, published 2025).

Where “and” joins values, the source holds several entries; their conditions need not be identical. Equal values may be shown once. Entries after “also recorded” stand apart in the source; their conditions may differ.

Data set [1] is described as follows: GSNO thermal decomposition via UV-Vis absorption spectroscopy. The class given is physicochemical. The conditions noted are these: for stabilization effect on GSNO (remaining GSNO after 48 h): 2-day experiment, 0.05 M GSNO in 0.05 M PB with 0.1 M CD derivative, dark, 37° C.; for order of enhancement of GSNO stability (reduced decomposition reactivity) by the host CD: 0.1 M GSNO solution containing 0.1 M CD, pH 7.4, 37° C. On the procedure:
GSNO was synthesized by nitrosation of reduced L-glutathione in acidified nitrite as previously reported.^52 After collecting GSNO precipitates and washing them using cold water and acetone, GSNO powder was vacuum dried for 4 h and stored at −20° C. GSNO powders were dissolved in phosphate buffer (PB) containing the same mole of Na2HPO4 before the pH adjustment. For example, the formal concentration of Na2HPO4 is 0.1 M when the GSNO concentration is 0.1 M. One hundred μM EDTA was always added to each solution before the solution pH was finally adjusted to 7.4 via NaOH. EDTA is a chelating agent to mask Cu^2+, a S-nitrosothiol catalyst that may exist in solvents and chemicals as an impurity.^53 For solutions with reactive agents, BSA, ascorbic acid, or cysteine was added before the pH adjustment. To prepare GSNO-CD solutions, appropriate amounts of CD powders were dissolved into the GSNO solutions prior to the pH adjustment.
Aqueous GSNO solutions were contained in 1.5 mL disposable polystyrene cuvettes. The cuvette was caped and further sealed with parafilm. The concentrations of GSNO during storage at 37° C. or 25° C. in the dark were monitored by a UV-vis spectrophotometer (Go Direct® Fluorescence/UV-VIS Spectrophotometer) at a wavelength of 545 nm. A 4 W LED white light was used as the light source for the photodecomposition experiment at room temperature. The distance between the light source and the cuvettes was approximately 10 cm. All GSNO decomposition experiments were triplicated, and the GSNO concentration was expressed as mean±standard deviation.

For data set [2] the following is noted: in water; cited from earlier work.
Another data set concerns fibroblast L929 cells. Put plainly: Cytotoxicity test (MTS assay) of lock-solution-filled silicone tubes. The class given is cell-based, mouse. Conditions: 24-h incubation of L929 cells with silicone tubes filled with the lock solution. On the procedure:
L929 murine fibroblast cells were suspended in complete media (DMEM with 1% penicillin/streptomycin and 10% FBS) before being seeded in a 24-well plate at a concentration of 5×10^5 cells per well. After 24 h of incubation, the attached cells in each well were incubated in fresh media containing a sterilized 1-cm silicone tube (HelixMark® 60-011-07) filled with a lock solution with buffer, GSNO, or GSNO-αCD and with both ends sealed. MTS assays were performed following the manufacturer's procedure after an additional 24-h incubation. Absorbance at 490 nm was measured by a Cytation 3 imaging plate reader (Biotek).

Consider “2-hydroxypropyl alpha cyclodextrin [2-hydroxypropyl αCD]”, for which the “stabilization effect on GSNO (remaining GSNO after 48 h)” value in data set [1] was “significant stabilization effect”.

On to `CC(=O)N[C@H](C(=O)O)C(C)(C)SN=O` (racemic) [S-Nitroso-N-acetylpenicillamine], for which the aqueous solubility in data set [2] was 2.1 mg/mL and < 0.01 M.

For the compound `CC(O)COC[C@H]1O[C@@H]2O[C@H]3[C@H](O)[C@@H](O)[C@@H](O[C@H]4[C@H](O)[C@@H](O)[C@@H](O[C@H]5[C@H](O)[C@@H](O)[C@@H](O[C@H]6[C@H](O)[C@@H](O)[C@@H](O[C@H]7[C@H](O)[C@@H](O)[C@@H](O[C@H]8[C@H](O)[C@@H](O)[C@@H](O[C@H]1[C@H](O)[C@H]2O)O[C@@H]8COCC(C)O)O[C@@H]7COCC(C)O)O[C@@H]6COCC(C)O)O[C@@H]5COCC(C)O)O[C@@H]4COCC(C)O)O[C@@H]3COCC(C)O` (stereo partly drawn) [HP βCD, 2-hydroxypropyl βCD], the “order of enhancement of GSNO stability (reduced decomposition reactivity) by the host CD” value in data set [1] is “αCD>γCD>HP βCD”; in data set [1] (listed as hydroxypropyl βCD), “αCD>γCD>hydroxypropyl βCD”.

As to `OC[C@H]1O[C@@H]2O[C@H]3[C@H](O)[C@@H](O)[C@@H](O[C@H]4[C@H](O)[C@@H](O)[C@@H](O[C@H]5[C@H](O)[C@@H](O)[C@@H](O[C@H]6[C@H](O)[C@@H](O)[C@@H](O[C@H]7[C@H](O)[C@@H](O)[C@@H](O[C@H]1[C@H](O)[C@H]2O)O[C@@H]7CO)O[C@@H]6CO)O[C@@H]5CO)O[C@@H]4CO)O[C@@H]3CO` [αCD, alpha cyclodextrin], in the data set on fibroblast L929 cells, the “cytotoxicity / cell viability (MTS)” value is “no difference in the cell viability”. Further, in data set [1], the “order of enhancement of GSNO stability (reduced decomposition reactivity) by the host CD” value is “αCD>γCD>hydroxypropyl βCD; also recorded: αCD>γCD>HP βCD” and the “stabilization effect on GSNO (remaining GSNO after 48 h)” value is reported as “best”.

On to `OC[C@H]1O[C@@H]2O[C@H]3[C@H](O)[C@@H](O)[C@@H](O[C@H]4[C@H](O)[C@@H](O)[C@@H](O[C@H]5[C@H](O)[C@@H](O)[C@@H](O[C@H]6[C@H](O)[C@@H](O)[C@@H](O[C@H]7[C@H](O)[C@@H](O)[C@@H](O[C@H]8[C@H](O)[C@@H](O)[C@@H](O[C@H]9[C@H](O)[C@@H](O)[C@@H](O[C@H]1[C@H](O)[C@H]2O)O[C@@H]9CO)O[C@@H]8CO)O[C@@H]7CO)O[C@@H]6CO)O[C@@H]5CO)O[C@@H]4CO)O[C@@H]3CO` [γCD, gamma cyclodextrin], for which, in data set [1], the “order of enhancement of GSNO stability (reduced decomposition reactivity) by the host CD” value is listed as “αCD>γCD>hydroxypropyl βCD; also recorded: αCD>γCD>HP βCD”.

Regarding methyl alpha cyclodextrin [methyl αCD], the “stabilization effect on GSNO (remaining GSNO after 48 h)” value in data set [1] is “significant stabilization effect”.
